# Assay results published in patent US9938281B2 (Merck Sharp & Dohme Corp., priority 2012, dated 2018).
# How the values were obtained:
# PI3K-delta = molecular target: T1, PI3K-delta (Homo sapiens, UniProt O00329); assay: HTRF PI3K biochemical assay, delta isoform; settings: form screened (neutral or TFA salt) given, read-out: PI3Kdelta IC50
# T1 construct: purchased Upstate; Millipore 14-604
# Text: HTRF PI3K Biochemical Assay to Measure Intrinsic Potency of Compound Inhibitors
# This assay was developed and further optimized from a kit produced by Upstate (Millipore catalog #33-047) and has been configured for HTS and SAR screening. Briefly, this procedure exploits the exquisite specificity and high affinity binding of enzyme reaction substrate phosphatidyl(3,4,5)triphosphate (PIP3) to the GRP1 pleckstrin homology (PH) domain to generate the signal. In the absence of PIP3, an HTRF (Homogeneous Time-Resolved Fluorescence energy transfer) complex is formed consisting of europium (Eu)-labeled anti-GST, GSTtagged GRP1-PH domain, biotin-PIP3 and streptavidin conjugated APC. The native PIP3 produced by PI3-Kinase activity disrupts in a competitive manner the biotin-PIP3 from the PH domain, resulting in the loss of energy transfer (HTRF complex) and a decrease in the signal. The format of this assay is the same for all 4 isoforms of PI3K; the differences lie in the concentration of enzyme used to achieve robust assay window. The alpha, beta, and delta assays are run at 0.5, 1, and 0.3 nM enzymes and the gamma assay is run at 5 nM enzyme. The ATP concentration is 100 uM in the alpha, beta, and delta assays and 50 uM ATP in the gamma assay. All reactions are run at 5 uM PIP2.
# Compounds are serially diluted (3-fold in 100% DMSO) across a 384-well polypropylene source plated from column 3 to column 12 and column 13 to column 22, to yield 10 concentration dose response for each test compound. Columns 1, 2, 23 and 24 contain either only DMSO or pharmacological known control inhibitor.
# The PI3-Kinase biochemical assay was optimized using the HTRF kit provided by Upstate (Millipore). The assay kit contains six reagents: 1) 4× Reaction Buffer; 2) native PIP2 (substrate); 3) Stop (EDTA); 4) Detection Mix A (Streptavidin-APC); 5) Detection Mix B (Eu-labeled Anti-GST plus GST-tagged PH-domain); 6) Detection Mix C.
# PI3Kinase Reaction Buffer is prepared by dilution the stock 1:4 with de-ionized water. […] Enzyme addition and compound pre-incubation are initiated by the addition of 1.25 ul of PI3K (at twice its final concentration) in the 1× reaction buffer to all wells using a BioRaptor. Plates are incubated at room temperature for 15 minutes. Reactions are initiated by addition of 1.25 ul of 2× substrate solution (PIP2 and ATP in 1× reaction buffer) using BioRaptor. Plates are incubated in humidified chamber at room temperature for one hour. Reactions are quenched by addition of 0.625 uL of stop solution to all wells using the BioRaptor. The quenched reactions are then processed to detect product formation by adding 0.625 uL of Detection Solution to all wells using the BioRaptor (Detection mix C, Detection Mix A, and Detection Mix B combined together in an 18:1:1 ratio prepared 2 hours prior to use).
# The loss of the HTRF signal is due to the displacement of biotinylated-PIP3 from the PH domain by the PI3K-dependent conversion of PIP2 to PIP3. This loss of signal is nonlinear with respect to both increasing product and time. This non-linear detection will impact accuracy of IC50 calculations; therefore, there is a need for a correction factor to obtain more accurate IC50 values. This correction is derived from a PIP3 standard curve run in a separate assay plate. All data were calculated using the ratio of acceptor (APC) to donor (Europium) fluorescence in each well of the assay plate. […] An IC50 was then calculated fitting the % inhibition data to the equation: % inhibition=min+(Max−min)/1+([inhibitor]/IC50)^n) where min is the % inhibition with inhibitor, max is the signal in DMSO control, and n is the Hill slope.
# PI3K-alpha = molecular target: T2, PI3K-alpha (Homo sapiens, UniProt P42336); assay: HTRF PI3K biochemical assay, alpha isoform; settings: ratio PI3K-alpha IC50 value / PI3K-delta IC50 value
# T2 construct: purchased Upstate; Millipore 14-602
# T2 sequence (P42336 whole entry, canonical isoform): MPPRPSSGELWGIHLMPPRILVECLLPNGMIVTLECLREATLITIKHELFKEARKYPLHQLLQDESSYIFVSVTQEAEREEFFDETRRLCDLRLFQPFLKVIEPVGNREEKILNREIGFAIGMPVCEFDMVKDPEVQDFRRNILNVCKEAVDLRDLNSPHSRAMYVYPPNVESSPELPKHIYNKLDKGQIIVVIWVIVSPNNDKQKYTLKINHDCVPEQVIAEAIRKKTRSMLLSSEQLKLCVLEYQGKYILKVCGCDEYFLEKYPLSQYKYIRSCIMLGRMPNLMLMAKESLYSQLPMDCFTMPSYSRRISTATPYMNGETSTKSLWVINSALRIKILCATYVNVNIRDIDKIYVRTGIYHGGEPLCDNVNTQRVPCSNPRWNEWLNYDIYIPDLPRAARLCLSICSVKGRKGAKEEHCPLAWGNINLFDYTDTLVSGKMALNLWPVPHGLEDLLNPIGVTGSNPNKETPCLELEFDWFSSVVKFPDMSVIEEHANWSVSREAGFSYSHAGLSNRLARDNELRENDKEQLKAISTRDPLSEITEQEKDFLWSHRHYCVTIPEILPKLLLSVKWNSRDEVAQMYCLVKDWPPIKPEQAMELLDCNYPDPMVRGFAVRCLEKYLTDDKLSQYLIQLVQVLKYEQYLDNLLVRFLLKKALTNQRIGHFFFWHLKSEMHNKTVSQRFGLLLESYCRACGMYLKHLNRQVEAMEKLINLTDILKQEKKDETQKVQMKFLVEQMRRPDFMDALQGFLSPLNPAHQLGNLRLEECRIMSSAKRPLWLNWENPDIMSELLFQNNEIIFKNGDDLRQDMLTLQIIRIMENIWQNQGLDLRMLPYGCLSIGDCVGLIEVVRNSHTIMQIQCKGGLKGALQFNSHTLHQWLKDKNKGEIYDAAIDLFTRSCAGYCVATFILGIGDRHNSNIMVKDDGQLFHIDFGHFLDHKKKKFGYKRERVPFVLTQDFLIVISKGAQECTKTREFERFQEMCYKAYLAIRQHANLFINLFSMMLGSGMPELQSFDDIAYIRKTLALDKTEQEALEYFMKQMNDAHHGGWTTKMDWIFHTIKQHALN
# T2 sequence (P27986 whole entry partner, canonical isoform): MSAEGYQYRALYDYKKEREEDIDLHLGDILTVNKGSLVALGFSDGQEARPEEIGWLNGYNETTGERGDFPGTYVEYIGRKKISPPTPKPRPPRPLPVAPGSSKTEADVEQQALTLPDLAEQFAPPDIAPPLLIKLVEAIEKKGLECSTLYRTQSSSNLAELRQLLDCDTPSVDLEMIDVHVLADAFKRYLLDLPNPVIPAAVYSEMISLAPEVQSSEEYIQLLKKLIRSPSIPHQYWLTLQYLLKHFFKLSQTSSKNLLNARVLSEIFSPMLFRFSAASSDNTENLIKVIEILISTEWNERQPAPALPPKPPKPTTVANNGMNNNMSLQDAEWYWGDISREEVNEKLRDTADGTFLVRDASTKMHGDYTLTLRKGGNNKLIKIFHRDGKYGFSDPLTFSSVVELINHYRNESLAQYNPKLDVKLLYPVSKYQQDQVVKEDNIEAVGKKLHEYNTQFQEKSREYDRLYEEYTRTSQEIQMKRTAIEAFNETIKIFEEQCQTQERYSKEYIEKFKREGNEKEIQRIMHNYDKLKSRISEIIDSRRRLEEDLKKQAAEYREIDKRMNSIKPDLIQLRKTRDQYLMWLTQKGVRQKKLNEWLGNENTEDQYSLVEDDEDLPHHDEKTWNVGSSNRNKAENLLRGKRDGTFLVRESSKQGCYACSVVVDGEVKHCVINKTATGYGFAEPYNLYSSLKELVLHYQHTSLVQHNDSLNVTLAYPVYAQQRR
# T1 sequence (O00329 whole entry, canonical isoform): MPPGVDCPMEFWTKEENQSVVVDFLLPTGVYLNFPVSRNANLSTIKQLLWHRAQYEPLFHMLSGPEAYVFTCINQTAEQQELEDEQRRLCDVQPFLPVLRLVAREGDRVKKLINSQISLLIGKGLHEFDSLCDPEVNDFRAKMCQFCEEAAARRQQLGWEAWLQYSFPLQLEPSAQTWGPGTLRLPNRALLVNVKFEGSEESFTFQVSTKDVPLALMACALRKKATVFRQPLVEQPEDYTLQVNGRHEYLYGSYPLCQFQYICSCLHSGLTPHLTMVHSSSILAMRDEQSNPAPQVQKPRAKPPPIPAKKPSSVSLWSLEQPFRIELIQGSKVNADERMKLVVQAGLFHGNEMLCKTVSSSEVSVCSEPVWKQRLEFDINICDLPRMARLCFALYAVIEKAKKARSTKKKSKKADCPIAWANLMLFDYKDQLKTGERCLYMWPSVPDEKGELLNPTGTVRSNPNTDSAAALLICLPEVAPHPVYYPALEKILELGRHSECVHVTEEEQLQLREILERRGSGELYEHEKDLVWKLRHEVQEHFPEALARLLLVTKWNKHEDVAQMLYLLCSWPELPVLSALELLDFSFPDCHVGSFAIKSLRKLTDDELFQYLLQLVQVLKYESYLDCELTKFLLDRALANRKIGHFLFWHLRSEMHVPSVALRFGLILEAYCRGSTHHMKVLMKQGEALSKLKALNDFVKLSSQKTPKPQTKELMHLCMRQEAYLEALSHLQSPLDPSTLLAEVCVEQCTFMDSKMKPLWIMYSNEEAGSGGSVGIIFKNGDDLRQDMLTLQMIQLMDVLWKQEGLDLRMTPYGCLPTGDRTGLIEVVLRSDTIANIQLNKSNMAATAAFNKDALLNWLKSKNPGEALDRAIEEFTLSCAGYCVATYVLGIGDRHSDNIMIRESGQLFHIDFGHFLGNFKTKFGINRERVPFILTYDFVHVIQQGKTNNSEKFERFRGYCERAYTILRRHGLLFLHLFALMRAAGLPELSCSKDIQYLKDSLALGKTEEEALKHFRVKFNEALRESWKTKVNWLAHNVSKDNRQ
# T1 sequence (P27986 whole entry partner, canonical isoform): as the sequence (P27986 whole entry partner, canonical isoform) above
Compound,IC50 (PI3K-delta) [nM],Selectivity versus PI3Kalpha (PI3K-alpha)
"CCC(=O)N1CC[C@H](Nc2ncnc3c2nc(-c2cnn(CC)c2C)n3CC(F)F)C1 [Compound 9-4, 9-(2,2-difluoroethyl)-8-(1-ethyl-5-methyl-1H-pyrazol-4-yl)-N-[(3S)-1-propanoylpyrrolidin-3-yl]-9H-purin-6-amine]",< 1,>10
"Cc1ncc(-c2nc3c(N[C@H]4CCN(C(=O)C5CC5)C4)ncnc3n2CC(F)(F)F)cn1 [Compound 9-5, N-[(3S)-1-(cyclopropylcarbonyl)pyrrolidin-3-yl]-8-(2-methylpyrimidin-5-yl)-9-(2,2,2-trifluoroethyl)-9H-purin-6-amine]",580,>10
"CCCN1CC[C@H](Nc2ncnc3c2nc(-c2cnn(CC)c2C)n3C)C1 [Compound 10-1, 8-(1-ethyl-5-methyl-1H-pyrazol-4-yl)-9-methyl-N-[(3S)-1-propylpyrrolidin-3-yl]-9H-purin-6-amine]",42,>10
"CCn1c(-c2cnc(C)nc2)nc2c(NC3CN(C(C)C4CC4)CC34CC4)ncnc21 (stereo not drawn) [Compound 10-2, N(S AND R)-[5-(1-(S AND R)-cyclopropylethyl)-5-azaspiro[2.4]hept-7-yl]-9-ethyl-8-(2-methylpyrimidin-5-yl)-9H-purin-6-amine]",41,>10
"CCn1c(-c2cnc(C)nc2)nc2c(NC3CN(C(C)C)CC34CC4)ncnc21 (stereo not drawn) [Compound 10-3, (R AND S)-9-ethyl-N-[5-(1-methylethyl)-5-azaspiro[2.4]hept-7-yl]-8-(2-methylpyrimidin-5-yl)-9H-purin-6-amine]",96,>10
"CCn1ncc(-c2nc3c(N[C@H]4CCCN(S(=O)(=O)CC)C4)ncnc3n2C)c1C [Compound 11-1, 8-(1-ethyl-5-methyl-1H-pyrazol-4-yl)-N-[(3S)-1-(ethylsulfonyl)piperidin-3-yl]-9-methyl-9H-purin-6-amine]",7.4,>10
"CCNC(=O)N1CCC[C@H](Nc2ncnc3c2nc(-c2cnn(CC)c2C)n3C)C1 [Compound 12-1, (3S)-N-ethyl-3-{[8-(1-ethyl-5-methyl-1H-pyrazol-4-yl)-9-methyl-9H-purin-6-yl]amino}piperidine-1-carboxamide]",30,>10
"CCn1c(-c2cnc(C)nc2)nc2c(N[C@H]3CCN(C(=O)NCCOC)C3)ncnc21 [Compound 12-2, (3S)-3-{[9-ethyl-8-(2-methylpyrimidin-5-yl)-9H-purin-6-yl]amino}-N-(2-methoxyethyl)pyrrolidine-1-carboxamide]",8.9,>10
"CCn1c(-c2cnc(C)nc2)nc2c(N[C@H]3CCN(C(=O)N4CCOCC4)C3)ncnc21 [Compound 12-4, 9-ethyl-8-(2-methylpyrimidin-5-yl)-N-[(3S)-1-(morpholin-4-ylcarbonyl)pyrrolidin-3-yl]-9H-purin-6-amine]",4.5,>10
"CCn1c(-c2cnc(C)nc2)nc2c(N[C@H]3CCN(C(=O)N4CCCCC4)C3)ncnc21 [Compound 12-5, 9-ethyl-8-(2-methylpyrimidin-5-yl)-N-[(3S)-1-(piperidin-1-ylcarbonyl)pyrrolidin-3-yl]-9H-purin-6-amine]",1.2,>10
"CCn1c(-c2cnc(C)nc2)nc2c(N[C@H]3CCN(C(=O)NC4CC4)C3)ncnc21 [Compound 12-6, (3S)-N-cyclopropyl-3-{[9-ethyl-8-(2-methylpyrimidin-5-yl)-9H-purin-6-yl]amino}pyrrolidine-1-carboxamide]",1.7,>10
"CCn1c(-c2cnc(C)nc2)nc2c(N[C@H]3CCN(C(=O)NCC4CC4)C3)ncnc21 [Compound 12-7, (3S)-N-(cyclopropylmethyl)-3-{[9-ethyl-8-(2-methylpyrimidin-5-yl)-9H-purin-6-yl]amino}pyrrolidine-1-carboxamide]",6.4,>10
"CCn1c(-c2cnc(C)nc2)nc2c(N[C@H]3CCN(C(=O)NCC(F)(F)F)C3)ncnc21 [Compound 12-8, (3S)-3-{[9-ethyl-8-(2-methylpyrimidin-5-yl)-9H-purin-6-yl]amino}-N-(2,2,2-trifluoroethyl)pyrrolidine-1-carboxamide]",9.7,>10
"CCn1c(-c2cnc(C)nc2)nc2c(N[C@H]3CCN(C(=O)N4CCC4)C3)ncnc21 [Compound 12-9, N-[(3S)-1-(azetidin-1-ylcarbonyl)pyrrolidin-3-yl]-9-ethyl-8-(2-methylpyrimidin-5-yl)-9H-purin-6-amine]",1.4,>10
"CCn1c(-c2cnc(C)nc2)nc2c(N[C@H]3CCN(C(=O)N4CC(OC)C4)C3)ncnc21 [Compound 12-10, 9-ethyl-N-{(3S)-1-[(3-methoxyazetidin-1-yl)carbonyl]pyrrolidin-3-yl}-8-(2-methylpyrimidin-5-yl)-9H-purin-6-amine]",< 1,>10
"CCn1c(-c2cnc(C)nc2)nc2c(N[C@H]3CCN(C(=O)N4CCC(C)(C)C4)C3)ncnc21 [Compound 12-11, N-{(3S)-1-[(3,3-dimethylpyrrolidin-1-yl)carbonyl]pyrrolidin-3-yl}-9-ethyl-8-(2-methylpyrimidin-5-yl)-9H-purin-6-amine]",< 1,>10
"CCn1c(-c2cnc(C)nc2)nc2c(N[C@H]3CCN(C(=O)N4CC[C@@H](F)C4)C3)ncnc21 [Compound 12-12, 9-ethyl-N-[(3S)-1-{[(3R)-3-fluoropyrrolidin-1-yl]carbonyl}pyrrolidin-3-yl]-8-(2-methylpyrimidin-5-yl)-9H-purin-6-amine]",2.9,>10

# The next lines start with the values.
IC50 (PI3K-delta) [nM],Selectivity versus PI3Kalpha (PI3K-alpha),Compound
1.7,>10,"CCn1c(-c2cnc(C)nc2)nc2c(N[C@H]3CCN(C(=O)N4CC[C@H](F)C4)C3)ncnc21 [Compound 12-13, 9-ethyl-N-[(3S)-1-{[(3S)-3-fluoropyrrolidin-1-yl]carbonyl}pyrrolidin-3-yl]-8-(2-methylpyrimidin-5-yl)-9H-purin-6-amine]"
1.6,>10,CCn1c(-c2cnc(C)nc2)nc2c(N[C@H]3CCN(C(=O)N4CC[C@H](OC)C4)C3)ncnc21 [Compound 12-14]
8.2,>10,CCn1c(-c2cnc(C)nc2)nc2c(N[C@H]3CCN(C(=O)N4CC[C@@H](OC)C4)C3)ncnc21 [Compound 12-15]
16,>10,"CCn1c(-c2cnc(C)nc2)nc2c(N[C@H]3CCN(C(=O)NC4CCCCC4)C3)ncnc21 [Compound 12-16, (3S)-N-cyclohexyl-3-{[9-ethyl-8-(2-methylpyrimidin-5-yl)-9H-purin-6-yl]amino}pyrrolidine-1-carboxamide]"
13,>10,"CCOC(=O)CCNC(=O)N1CC[C@H](Nc2ncnc3c2nc(-c2cnc(C)nc2)n3CC)C1 [Compound 12-17, ethyl N-{[(3S)-3-{[9-ethyl-8-(2-methylpyrimidin-5-yl)-9H-purin-6-yl]amino}pyrrolidin-1-yl]carbonyl}-beta-alaninate]"
13,>10,"CCOC(=O)C(C)NC(=O)N1CC[C@H](Nc2ncnc3c2nc(-c2cnc(C)nc2)n3CC)C1 (stereo partly drawn) [Compound 12-18, ethyl N-{[(3S)-3-{[9-ethyl-8-(2-methylpyrimidin-5-yl)-9H-purin-6-yl]amino}pyrrolidin-1-yl]carbonyl}(D and L)-alaninate]"
13,>10,"CCn1c(-c2cnc(C)nc2)nc2c(N[C@H]3CCN(C(=O)NC(C)C)C3)ncnc21 [Compound 12-19, (3S)-3-{[9-ethyl-8-(2-methylpyrimidin-5-yl)-9H-purin-6-yl]amino}-N-(1-methylethyl)pyrrolidine-l-carboxamide]"
7,>10,"CCn1c(-c2cnc(C)nc2)nc2c(N[C@H]3CCN(C(=O)NCc4ccco4)C3)ncnc21 [Compound 12-21, (3S)-3-{[9-ethyl-8-(2-methylpyrimidin-5-yl)-9H-purin-6-yl]amino}-N-(furan-2-ylmethyl)pyrrolidine-1-carboxamide]"
5.3,>10,"CCn1c(-c2cnc(C)nc2)nc2c(N[C@H]3CCN(C(=O)NC4CCC4)C3)ncnc21 [Compound 12-22, (3S)-N-cyclobutyl-3-{[9-ethyl-8-(2-methylpyrimidin-5-yl)-9H-purin-6-yl]amino}pyrrolidine-1-carboxamide]"
3.5,>10,"CCCCNC(=O)N1CC[C@H](Nc2ncnc3c2nc(-c2cnc(C)nc2)n3CC)C1 [Compound 12-23, (3S)-N-butyl-3-{[9-ethyl-8-(2-methylpyrimidin-5-yl)-9H-purin-6-yl]amino}pyrrolidine-1-carboxamide]"
1.9,>10,"CCn1c(-c2cnc(C)nc2)nc2c(N[C@H]3CCN(C(=O)NC(C)(C)C(=O)OC)C3)ncnc21 [Compound 12-24, methyl N-{[(3S)-3-{[9-ethyl-8-(2-methylpyrimidin-5-yl)-9H-purin-6-yl]amino}pyrrolidin-1-yl]carbonyl}-2-methylalaninate]"
1.4,>10,"CCn1c(-c2cnc(C)nc2)nc2c(N[C@H]3CCN(C(=O)NC(C)(C)CC(C)(C)C)C3)ncnc21 [Compound 12-25, (3S)-3-{[9-ethyl-8-(2-methylpyrimidin-5-yl)-9H-purin-6-yl]amino}-N-(1,1,3,3-tetramethylbutyl)pyrrolidine-1-carboxamide]"
< 1,>10,"CCn1c(-c2ccc(C(F)(F)F)nc2)nc2c(N[C@H]3CCN(C(=O)N4CCC4)C3)ncnc21 [Compound 12-26, N-[(3S)-1-(azetidin-1-ylcarbonyl)pyrrolidin-3-yl]-9-ethyl-8-[6-(trifluoromethyl)pyridin-3-yl]-9H-purin-6-amine]"
